Holding throughout (assay): NCI tumour cell line growth inhibition, 48 h
Assay [1] relates to HCC-2998 colon.
The test system of assay [2] is NCI-H226 lung.
The test system of assay [3] is CCRF-CEM leukemia.
The test system of assay [4] is COLO 205 colon.
For assay [5], the system named is HOP-62 NSCLC.
Assay [6] deals with SK-MEL-2 melanoma.
Assay [7] has as its system RXF 393 renal.
Assay [8] has as its system SR leukemia.
Assay [9] relates to MALME-3M melanoma.
The test system of assay [10] is NCI-H522 lung.

16 compounds from PubChem BioAssay (NCI) can be followed below.

Several values for one entry are separate records, joined by “and”; a condition that tells them apart may be missing. Equal values may be shown once.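 Tested at 5 concentrations; 48 h exposure; 96-well plates; endpoints linearly interpolated, else capped at highest concentration. Here, GI50 denotes the concentration required for 50% inhibition of growth. TGI is the concentration that stops growth completely.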

With `C[C@@H]1C=C2C(=O)O[C@@H]3CC[C@H](C1)[C@]23O`, the GI50 was 16.9 µM in [1]; 7.02 µM in assay [2]; 2.66 µM in assay [3]; 4.64 µM in assay [4]; 17.8 µM in assay [5]; 3.51 µM in [8]. The GI50 in [9] was 4.18 µM; in assay [10] it was 2.24 µM. The TGI in [1] was 32.9 µM; in assay [2], 40 µM; in assay [3], 11.5 µM; in [4] it was 15.7 µM; in assay [5], 63.1 µM; in assay [6], 11.4 µM. For the same compound, the TGI in assay [7] amounted to 7.97 µM; in [8], 19.6 µM; in assay [9] it was 23.3 µM; in assay [10] it was 9.43 µM.

Regarding `C[C@H]1[C@H](C)CC[C@]2(C(=O)O)CC[C@]3(C)C(=CC[C@@H]4[C@@]5(C)C/C(=C/c6ccco6)C(=O)C(C)(C)[C@@H]5CC[C@]43C)[C@H]12`, the GI50 in assay [1] is 3.84 µM; in [2] it was 4.36 µM; in assay [3], 3.52 µM; in assay [4], 3.6 µM; in assay [5] it was 3.78 µM; in assay [6] it was 10.1 µM. For the same compound, the GI50 was 4.46 µM in [7], 4.12 µM in assay [8], 8.01 µM in [9] and 6.35 µM in assay [10]. Moreover, the TGI in [1] turned out to be 15.3 µM; in assay [2], 23.2 µM; in assay [3], 16.8 µM; in [4], 15.1 µM; in assay [5], 16.9 µM; in assay [6], 30.4 µM. Moreover, the TGI turned out to be 16.3 µM in assay [7], 50.8 µM in assay [8], 22.2 µM in [9] and 23.6 µM in assay [10].

Turning to `CCn1cnc2c(Nc3cccc(Cl)c3)nc(N[C@@H]3CCCC[C@@H]3N)nc21`, the GI50 in assay [1] was 1.77 µM; in assay [2], 2 µM; in assay [3], 2.88 µM; in assay [4], 1.19 µM; in assay [5], 1.52 µM; in assay [6], 1.65 µM. The GI50 is 1.35 µM in assay [7], 0.699 µM in assay [8], 1.57 µM in assay [9] and 1.64 µM in [10]. In addition, the TGI is 4.35 µM in assay [1]; 5.95 µM in assay [2]; 9.66 µM in assay [3]; 2.6 µM in [4]; 3.71 µM in [5]; 3.43 µM in assay [6]. Moreover, the TGI in assay [7] turned out to be 2.89 µM; in assay [8], 3.94 µM; in assay [9] it was 3.21 µM; in assay [10], 3.8 µM.

For `CCN(CC)C(=O)COc1ccc(Br)cc1Br`, the TGI in assay [1], in assay [2], in assay [3], in [4], in assay [5] and in [6] was greater than 100 µM throughout. The TGI in [7], in assay [8], in [9] and in assay [10] was greater than 100 µM in each case.

For `Cn1cc(C2=C(c3cn(CCN)c4ccccc34)C(=O)NC2=O)c2ccccc21`, the GI50 in [1] is 7.22 µM; in assay [2], 4.44 µM; in [3] it was 6.05 µM; in [4], 2.7 µM; in assay [5] it was 6.07 µM; in assay [6] it was 5.12 µM. Also, the GI50 in assay [7] is 3.74 µM; in [8], 4.8 µM; in [9], 5.99 µM; in [10] it was 6.01 µM. The TGI in assay [1] is 20.9 µM; in [2], 18.1 µM; in [3] it was greater than 22.7 µM; in assay [4], 7.15 µM; in [5] it was greater than 19.7 µM; in assay [6], 12.1 µM. In addition, the TGI was 10.1 µM in assay [7], 17 µM in assay [8], 13.5 µM in [9] and 17.2 µM in assay [10].

On to `N.N.NCCCCN.O=C([O-])C1(C(=O)[O-])CCC1.O=C([O-])C1(C(=O)[O-])CCC1.[Pt+4].[Pt+4]`, for which the GI50 is greater than 100 µM in assay [1]; greater than 100 µM in assay [2]; 80.6 µM in assay [3]; greater than 100 µM in assay [4]; greater than 100 µM in assay [5]; greater than 100 µM in assay [6]. The GI50 was greater than 100 µM in [7], 34.6 µM in assay [8], greater than 100 µM in [9] and greater than 100 µM in [10]. Besides, the TGI in assay [1], in assay [2], in [3], in [4], in assay [5] and in assay [6] was greater than 100 µM in each case. For the same compound, the TGI in assay [7], in [8], in assay [9] and in assay [10] was greater than 100 µM in each case.

In the case of `C[C@@]12CCC(=O)C=C1CC[C@H]1C2=CC[C@]2(C)C1CC[C@@]2(C)O` (stereo not given in full), the TGI in assay [1], in assay [2], in assay [3], in assay [4], in [5] and in assay [6] was greater than 100 µM each time. Moreover, the TGI in assay [7], in [8], in assay [9] and in [10] was greater than 100 µM each time.

Take `CO[C@@H]1[C@H](OC(=O)NC(=O)CCl)CC[C@]2(CO2)[C@H]1[C@@]1(C)O[C@@H]1CC=C(C)C`: the TGI was 10.8 µM in [1]; 50.4 µM and 50.3 µM in assay [2]; 18 µM and 28.4 µM in assay [3]; 31.5 µM and 35.7 µM in assay [4]; 41.1 µM and 44.9 µM in assay [5]; 35.5 µM and 68.6 µM in assay [6]. The TGI is 27.9 µM and 131 µM in [7]; 39.4 µM in assay [8]; 18.5 µM and 18.7 µM in assay [9]; 3.99 µM and 16.8 µM and 33.8 µM in assay [10]. Moreover, the GI50 was 23.7 µM in assay [2]; 1.98 µM and 5.49 µM in assay [3]; 9.44 µM and 2.54 µM in assay [4]; 9.11 µM and 0.958 µM in assay [5]; 23 µM in assay [6]; 4.08 µM and 23.7 µM in assay [7]. Further, the GI50 was 6.76 µM in [8]; 4.16 µM in assay [9]; 1.23 µM and 7.41 µM in [10].

With `C=C1C(=O)O[C@H]2[C@H]1CC/C(COC(=O)NCc1c[nH]c3ccc(Cl)cc13)=C\CC[C@@]1(C)O[C@@H]21`, the GI50 in assay [1] is 1.96 µM; in [2] it was 1.61 µM; in [3], 0.341 µM; in assay [4] it was 1.19 µM; in assay [5], 1.72 µM; in assay [6], 1.42 µM. The GI50 in assay [7] is 1.37 µM; in [8] it was 0.357 µM; in assay [9], 1.68 µM; in assay [10], 0.527 µM. In addition, the TGI stood at 3.69 µM in assay [1]; 3.09 µM in assay [2]; 1.88 µM in assay [3]; 2.69 µM in [4]; 3.74 µM in assay [5]; 2.87 µM in assay [6]. For the same compound, the TGI in [7] came out at 2.76 µM; in [8], 3.88 µM; in assay [9], 3.34 µM; in [10], 2.05 µM.

For the compound `COc1ccccc1CNCCCN1C(=O)c2ccc3c4c(ccc(c24)C1=O)C(=O)N(CCCNCCCN)C3=O`, the GI50 was 0.35 µM in [1]; 0.746 µM in assay [2]; 0.185 µM in assay [3]; 0.456 µM in assay [4]; 0.444 µM in assay [5]; 0.907 µM in assay [6]. Besides, the GI50 was 0.246 µM in assay [7], 0.0273 µM in assay [8], 0.898 µM in [9] and 0.471 µM in assay [10]. Besides, the TGI in [1] was 1.98 µM; in assay [2] it was 3.2 µM; in [3], 4.13 µM; in assay [4], 1.85 µM; in [5] it was 3.34 µM; in assay [6] it was 3.03 µM. The TGI stood at 1.93 µM in [7], 9.2 µM in [8], 2.2 µM in assay [9] and 2.31 µM in [10].

As to `Cc1ccc(C)c(-c2csc(Nc3ccc(C)c(C)c3)n2)c1`, the GI50 was greater than 100 µM in assay [1]; greater than 100 µM in assay [2]; greater than 100 µM in assay [3]; greater than 100 µM in assay [4]; 36.8 µM in assay [5]; greater than 100 µM in [6]. In addition, the GI50 is 24.2 µM in [7], greater than 100 µM in assay [8], greater than 100 µM in assay [9] and 67.1 µM in assay [10]. Further, the TGI in [1], in assay [2], in assay [3], in assay [4], in [5] and in assay [6] was greater than 100 µM throughout. Moreover, the TGI in assay [7], in assay [8], in [9] and in assay [10] was greater than 100 µM throughout.

For the compound `O=C(COc1ccccc1)NS(=O)(=O)c1ccccc1`, the TGI in assay [1], in assay [2], in [3], in assay [4], in [5] and in assay [6] was greater than 100 µM each time. For the same compound, the TGI in assay [7], in assay [8], in assay [9] and in assay [10] was greater than 100 µM each time.

As to `COc1ccc(NC(=O)c2sc3nc(C)c(C(O)c4ccccc4)cc3c2N)cc1` (stereo not given), the GI50 was 2.48 µM in assay [1]; 4.87 µM in assay [2]; 2.54 µM in assay [3]; 3.08 µM in assay [4]; 3.67 µM in assay [5]; 4.88 µM in assay [6]. The GI50 in [7] was 2.25 µM; in [8], 0.517 µM; in assay [9] it was 3.22 µM; in assay [10], 2.21 µM. Further, the TGI in [1] is 24.1 µM; in assay [2], greater than 100 µM; in assay [3], greater than 100 µM; in [4] it was 13.9 µM; in [5] it was greater than 100 µM; in assay [6], 85.7 µM. For the same compound, the TGI in [7] was 49.1 µM; in [8], greater than 100 µM; in [9], 44.9 µM; in [10], 20.4 µM.

In the case of `Cc1cc(Cl)cc2c1NC(=O)C2(O)C(C)C(=O)c1ccc(Cl)cc1` (stereo not given), the TGI in assay [1] was greater than 100 µM; in assay [2], greater than 100 µM; in assay [3] it was greater than 89.4 µM; in assay [4], greater than 100 µM; in assay [5], greater than 100 µM; in assay [6], greater than 100 µM. Also, the TGI in [7] was 89.8 µM; in assay [8], greater than 91.2 µM; in assay [9], greater than 100 µM; in assay [10], greater than 100 µM.

For `N#Cc1ccnc(N2C(=O)CC[C@H]2C(=O)N(c2cncc(F)c2)[C@H](C(=O)NC2CC(F)(F)C2)c2ccccc2Cl)c1`, the GI50 in [1], in assay [2], in assay [3], in assay [4], in [5] and in [6] was greater than 100 µM each time. Further, the GI50 in [7] was greater than 100 µM; in [8] it was 62.5 µM; in [9], greater than 100 µM; in [10], greater than 100 µM. Further, the TGI in [1], in assay [2], in assay [3], in assay [4], in [5] and in [6] was greater than 100 µM in each case. For the same compound, the TGI in assay [7], in assay [8], in assay [9] and in assay [10] was greater than 100 µM each time.

`COc1cc(-c2cc(-c3nc4ccc(Cl)cc4[nH]3)[nH]n2)cc(OC)c1OC`: the GI50 in [1] is 5.98 µM; in [2], 1.88 µM; in assay [3], 2.48 µM; in assay [4], 3.18 µM; in [5], 3.11 µM; in [7], 3.26 µM. The GI50 in [8] was 3.32 µM; in assay [9], 2.58 µM; in [10], 1.9 µM. For the same compound, the TGI in assay [1] is 18.7 µM; in [2], 7.23 µM; in [3] it was 7.56 µM; in assay [4] it was 10 µM; in [5], 10.7 µM; in assay [7], 14.5 µM. Further, the figures for the TGI in assay [8], in assay [9] and in assay [10] were 37.6 µM, 8.32 µM and 5.73 µM, respectively.
